In paper PMC8958510 (Journal of Medicinal Chemistry, 2022):
Values after ≈ are worked out from the molar mass of the structure shown. Like-named read-outs stand apart in the source and are kept apart here.

How the values were obtained:
recombinant human sEH = target: T1, recombinant human sEH (Homo sapiens, UniProt P34913); experiment: Human soluble epoxide hydrolase inhibition, fluorescence-based assay (CMNPC substrate); format: biochemical; conditions: for higher hsEH potency relative to TPPU: ratio of IC50s vs TPPU; for IC50: recombinant human sEH, average of three replicates, read-out: hsEH IC50
T1 sequence (P34913 1-555): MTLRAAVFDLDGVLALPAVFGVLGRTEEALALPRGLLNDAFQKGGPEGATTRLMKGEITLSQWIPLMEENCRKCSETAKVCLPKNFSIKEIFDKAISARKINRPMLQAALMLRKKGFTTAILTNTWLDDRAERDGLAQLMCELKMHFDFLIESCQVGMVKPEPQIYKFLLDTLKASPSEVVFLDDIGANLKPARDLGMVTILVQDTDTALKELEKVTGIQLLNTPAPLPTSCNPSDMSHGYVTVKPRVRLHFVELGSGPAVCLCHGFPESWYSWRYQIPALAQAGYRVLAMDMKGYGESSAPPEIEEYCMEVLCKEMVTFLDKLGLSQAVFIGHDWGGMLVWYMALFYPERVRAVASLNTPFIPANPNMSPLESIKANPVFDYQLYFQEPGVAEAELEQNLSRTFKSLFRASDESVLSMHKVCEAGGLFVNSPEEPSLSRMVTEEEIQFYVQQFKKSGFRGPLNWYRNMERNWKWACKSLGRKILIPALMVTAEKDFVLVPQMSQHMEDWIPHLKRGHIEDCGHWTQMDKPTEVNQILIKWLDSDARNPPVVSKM
Description: (§1) Human and mouse soluble epoxide hydrolase inhibition assay. The inhibitory activity of
(§2) the target compounds toward human and mouse sEH was determined by a fluorescence-based
(§3) assay, using purified recombinant human or mouse sEH proteins and CMNPC as a fluorescent
(§4) substrate.6 The enzymes were incubated at 30 °C with the inhibitors ([I]final = 0.4-100,000
(§5) nM) for 5 min in 100 mM sodium phosphate buffer (200 µL, pH 7.4) containing 0.1 mg mL‒1
(§6) of BSA and 1% of DMSO. The substrate (CMNPC) was then added ([S]final = 5 µM). Activity
(§7) was assessed by measuring the appearance of the fluorescent 6-methoxynaphthaldehyde
(§8) (Molecular Devices). Results were obtained by regression analysis from a linear region of the
(§9) curve and are given as IC50 values, i.e., the concentration of the compound that reduces the
(§10) sEH activity by 50%. All measurements were performed in triplicate and the mean is

recombinant human AChE = target: T2, recombinant human AChE (Homo sapiens, UniProt P22303); format: biochemical; conditions: for IC50: recombinant human AChE, mean ± SEM, read-out: hAChE IC50
T2 construct: purchased Sigma-Aldrich, Milan, Italy
T2 sequence (P22303 32-614): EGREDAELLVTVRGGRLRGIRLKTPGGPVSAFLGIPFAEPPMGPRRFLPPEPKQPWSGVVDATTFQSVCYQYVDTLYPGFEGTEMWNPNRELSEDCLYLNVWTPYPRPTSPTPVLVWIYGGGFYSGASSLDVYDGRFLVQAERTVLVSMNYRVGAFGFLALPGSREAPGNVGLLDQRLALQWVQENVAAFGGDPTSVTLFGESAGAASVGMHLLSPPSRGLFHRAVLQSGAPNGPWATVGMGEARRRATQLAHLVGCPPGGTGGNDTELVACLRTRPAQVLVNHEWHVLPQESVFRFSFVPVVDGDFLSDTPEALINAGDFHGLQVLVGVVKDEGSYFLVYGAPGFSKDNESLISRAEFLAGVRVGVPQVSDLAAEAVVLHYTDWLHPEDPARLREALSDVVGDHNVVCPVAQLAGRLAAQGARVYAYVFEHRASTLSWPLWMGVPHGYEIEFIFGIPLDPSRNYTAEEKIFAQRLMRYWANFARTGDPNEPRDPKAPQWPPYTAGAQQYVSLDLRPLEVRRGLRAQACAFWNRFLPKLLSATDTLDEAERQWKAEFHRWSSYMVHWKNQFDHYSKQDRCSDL
Description: (§11) Human and mouse acetylcholinesterase and human butyrylcholinesterase inhibition
(§12) assay. The inhibitory activity of the target compounds toward recombinant human AChE
(§13) (Sigma-Aldrich, Milan, Italy), recombinant mouse AChE (Bio-Techne, Milan, Italy) and
(§14) human serum BChE (Sigma-Aldrich, Milan, Italy) was assessed by Ellman’s method,8 using
(§15) Stock solutions of the AChEs were prepared by
(§16) dissolving enzyme lyophilized powder (hAChE) or diluting the enzyme commercial solution
(§17) (mAChE) in 0.1 M potassium phosphate (pH 8.0) containing 0.1% Triton X-100, whereas the
(§18) stock solution of hBChE was prepared in 0.1% aq. gelatin and the stock solutions of the
(§19) compounds to be tested were made in MeOH (2-4 mM). The assay solution consisted of 0.02
(§20) unit mL‒1 of the enzyme, 340 M 5,5’-dithiobis(2-nitrobenzoic acid), and 550 M of the
(§21) substrate acetylthiocholine iodide (for AChE assay) or butyrylthiocholine iodide (for BChE
(§22) assay) in 0.1 M potassium phosphate (pH 8.0). Blank solutions containing all components
(§23) except the enzymes were prepared to account for the non-enzymatic hydrolysis of the
(§24) Prior the addition of the substrate, the assay solutions were incubated at 37 °C for 20 min.
(§25) After the addition of the substrate, cuvettes were rapidly transferred into a Jasco V-530
(§26) double beam spectrophotometer equipped with thermostated cuvette holders (37 °C), in order
(§27) for 240 s. For each tested compound, five increasing concentrations were assayed in order to
(§28) achieve inhibition percentages of 20‒80%. Each concentration was assayed in triplicate. IC50
(§29) values were calculated from the inhibition plot (% inhibition vs log[inhibitor]) and are
(§30) expressed as mean ± SEM. Each IC50 value is the average of at least two experiments, each

recombinant mouse AChE = target: T3, recombinant mouse AChE (Mus musculus, UniProt P21836); experiment: Mouse acetylcholinesterase inhibition, Ellman's method; format: biochemical; conditions: recombinant mouse AChE; mean ± SEM; read-out: mAChE IC50
T3 construct: purchased Bio-Techne, Milan, Italy
T3 sequence (P21836 32-614): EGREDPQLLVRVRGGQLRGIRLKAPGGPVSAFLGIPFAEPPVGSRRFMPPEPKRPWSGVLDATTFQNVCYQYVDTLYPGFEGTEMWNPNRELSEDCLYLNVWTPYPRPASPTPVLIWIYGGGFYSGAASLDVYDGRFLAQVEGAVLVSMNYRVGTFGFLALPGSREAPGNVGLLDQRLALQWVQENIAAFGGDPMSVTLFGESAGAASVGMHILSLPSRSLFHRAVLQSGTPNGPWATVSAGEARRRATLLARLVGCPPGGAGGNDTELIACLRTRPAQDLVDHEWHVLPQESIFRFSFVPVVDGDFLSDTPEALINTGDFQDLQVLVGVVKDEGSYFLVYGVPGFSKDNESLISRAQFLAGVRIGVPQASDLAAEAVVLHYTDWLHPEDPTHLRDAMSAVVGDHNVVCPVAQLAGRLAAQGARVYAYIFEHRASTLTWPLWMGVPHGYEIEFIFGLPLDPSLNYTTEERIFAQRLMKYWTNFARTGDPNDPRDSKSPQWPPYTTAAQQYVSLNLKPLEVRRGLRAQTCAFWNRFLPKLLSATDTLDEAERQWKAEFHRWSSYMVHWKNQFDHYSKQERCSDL
Description: as §11, §12, §13, §14, §15, §16, §17, §18, §19, §20, §21, §22, §23, §24, §25, §26, §27, §28, §29, §30

human serum BChE = target: T4, human serum BChE (Homo sapiens, UniProt P06276); format: biochemical; conditions: read-out: hBChE IC50
T4 construct: human serum BChE (Sigma-Aldrich, Milan, Italy) was assessed by Ellman’s method; purchased Sigma-Aldrich, Milan, Italy; host or cells: human serum
T4 sequence (P06276 29-602): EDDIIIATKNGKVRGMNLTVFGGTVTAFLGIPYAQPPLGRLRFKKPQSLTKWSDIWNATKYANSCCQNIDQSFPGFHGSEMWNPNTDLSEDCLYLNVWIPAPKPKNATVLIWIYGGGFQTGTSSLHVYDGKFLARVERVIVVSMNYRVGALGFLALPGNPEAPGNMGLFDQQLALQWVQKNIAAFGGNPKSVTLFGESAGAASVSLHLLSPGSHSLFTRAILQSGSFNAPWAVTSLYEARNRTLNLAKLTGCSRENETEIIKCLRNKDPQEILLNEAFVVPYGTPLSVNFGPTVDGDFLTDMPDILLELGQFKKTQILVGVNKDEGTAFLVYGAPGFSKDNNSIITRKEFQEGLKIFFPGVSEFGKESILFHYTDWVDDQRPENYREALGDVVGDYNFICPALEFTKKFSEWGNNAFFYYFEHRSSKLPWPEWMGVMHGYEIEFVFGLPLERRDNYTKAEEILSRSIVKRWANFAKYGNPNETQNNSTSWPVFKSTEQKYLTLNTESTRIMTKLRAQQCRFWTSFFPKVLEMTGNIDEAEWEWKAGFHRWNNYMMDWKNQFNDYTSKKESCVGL
Description: as §11, §12, §13, §14, §15, §16, §17, §18, §19, §20, §21, §22, §23, §24, §25, §26, §27, §28, §29, §30

SH-SY5Y cells = experiment: Cytotoxicity in SH-SY5Y cells, propidium iodide stain; format: cell-based, human; conditions: for toxicity to SH-SY5Y cells LD50: propidium iodide staining after 24 h of incubation, mean ± SD; for LD50 (SH-SY5Y): supplementary CSV
Description: Cytotoxicity in SH-SY5Y cells. The cytotoxicity of the target compounds was evaluated in
Minimum Essential Medium / Ham’s-F12 (1:1, v/v) medium (Biowest), supplemented with
non-essential amino acids, 10% fetal bovine serum, 1 mM glutamine and 50 µg mL‒1
gentamycin (all reagents from Gibco, Thermo Fisher Scientific). For the experiments, cells
were seeded at 3 × 10^5 cells mL‒1 (100 µL per well) in 96-well plates (Nunc). After 24 h, the
test compounds were added concentrated from stock solutions in DMSO and culture medium
to triplicate wells to obtain the final different concentrations up to 100 µM in 0.1% DMSO.
Compounds were incubated for further 24 h. At termination, cytotoxicity was analyzed by the
propidium iodide (PI) fluorescence stain assay. All compounds were tested in three
independent experiments using different cell passages. The PI assay measures cell death. PI
enters into the cells with damaged membranes and greatly increases the fluorescence upon
binding to DNA. PI reagent (Molecular Probes) at the final concentration of 7.5 µg mL‒1 was
added to the cells and incubated for 1 h. The resulting fluorescence was measured by a Flx-
death induced by the compounds was calculated from to the fluorescence of treated cells (Ft)
relative to that of control cells (Fmin) and cells incubated with Triton X100 (Fmax) as the 0%
and 100% cell death, respectively [% = ((Ft-Fmin)/(Fmax-Fmin)) × 100]. All compounds
were tested in three independent experiments using different cell passages. LC50 values were
calculated for each experiment and the results are expressed as mean ± SD.

[1] = Microsomal stability, human liver microsomes; format: in vitro ADME; conditions: human, liver microsomes (pooled), pH 7.4; for remaining at 1 h: after 1 h of incubation at 37 °C, read-out: % remaining compound, human microsomes
Description: (§31) Microsomal stability screen. The microsomal stability of the target compounds was
(§32) determined at the Innopharma Drug Screening and Pharmacogenomics Platform (Santiago de
(§33) Compostela, Spain). The human, rat and mice pooled microsomes, with a protein content of 20 mg mL‒1, were purchased from Tebu-Xenotech. The compounds were incubated in a 96-well microplate at 37 °C with the microsomes in 50 mM phosphate buffer (pH = 7.4) containing as cofactors 30 mM MgCl2, 10 mM NADP, 100 mM glucose-6-phosphate and 40
(§34) Samples (75 µL) were taken from each well at 0, 10, 20, 40 and 60 min and transferred to a microplate. 4 °C Acetonitrile (75 µL) and internal standard (rolipram) were then added for inactivating the microsomes, and water with 0.5% formic acid (30 µL) was subsequently added for improving the chromatographic conditions, keeping the mixtures at 4 °C. The plate was centrifuged at 46,000 g for 30 min at 15 °C and supernatants were taken and analyzed in a UPLC-MS/MS system (UPLC QSM Waters Acquity) using reverse phase Acquity UPLC® HSST3 1.7 μm (2.1 mm × 50 mm, Waters) as the stationary phase, 0.1% formic acid in water (A) / 0.1% formic acid in acetonitrile (B) as the mobile phase, a flow of 0.8 mL min‒1, and the
(§35) The metabolic stability of the compounds was calculated from the logarithm of the remaining compound at each of the time points studied.

[2] = Microsomal stability, mouse liver microsomes; format: in vitro ADME; conditions: mouse, liver microsomes (pooled), pH 7.4; for microsomal CLint at 1 h, 0.05 µM / half-life at 1 h, 0.05 µM: 37 °C; for half-life at 1 h, 0.05 µM: read-out: t1/2, mouse microsomes; for remaining at 1 h, 0.05 µM: after 1 h of incubation at 37 °C, read-out: % remaining compound, mouse microsomes
Description: as §31, §32, §33, §34, §35

[3] = Microsomal stability, rat liver microsomes; format: in vitro ADME; conditions: rat, liver microsomes (pooled), pH 7.4; for remaining at 1 h, 0.05 µM: after 1 h of incubation at 37 °C, read-out: % remaining compound, rat microsomes
Description: as §31, §32, §33, §34, §35

recombinant mouse sEH = target: T5, recombinant mouse sEH (Mus musculus, UniProt P34914); conditions: read-out: msEH IC50, average of three replicates
T5 sequence (P34914 1-554): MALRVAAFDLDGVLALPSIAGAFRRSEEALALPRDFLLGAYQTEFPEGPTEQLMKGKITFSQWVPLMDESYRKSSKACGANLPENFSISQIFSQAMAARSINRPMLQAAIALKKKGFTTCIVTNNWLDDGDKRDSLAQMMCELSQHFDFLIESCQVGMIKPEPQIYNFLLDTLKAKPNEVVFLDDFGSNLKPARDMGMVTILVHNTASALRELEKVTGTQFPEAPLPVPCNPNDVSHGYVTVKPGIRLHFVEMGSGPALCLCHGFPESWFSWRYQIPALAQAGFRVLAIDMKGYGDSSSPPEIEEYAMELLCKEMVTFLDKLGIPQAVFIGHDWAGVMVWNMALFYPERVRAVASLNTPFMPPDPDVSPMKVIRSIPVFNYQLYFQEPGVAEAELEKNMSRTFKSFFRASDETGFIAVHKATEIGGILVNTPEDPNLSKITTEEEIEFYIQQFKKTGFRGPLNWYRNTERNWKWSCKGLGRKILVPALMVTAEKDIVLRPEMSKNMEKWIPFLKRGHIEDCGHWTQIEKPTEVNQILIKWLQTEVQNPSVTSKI
Description: as §1, §2, §3, §4, §5, §6, §7, §8, §9, §10

[4] = PAMPA-BBB assay for brain permeability; conditions: for BBB permeation class: PAMPA-BBB prediction; for Papp: pig, PAMPA
Description: PAMPA-BBB assay for brain permeability. The brain permeability (Pe) of the target
compounds was assessed by an in vitro parallel artificial membrane permeability assay for
blood‒brain barrier penetration (PAMPA-BBB assay),12 which uses a lipid extract of porcine
brain membrane as a BBB model. The assay was validated by comparing experimental and
reported Pe values of a set of fourteen commercial drugs (Table S2 of the Supporting
On the basis of this equation and the limits established by Di et al. for BBB
independent experiments, each performed in triplicate, were carried out for each compound.

[5] = Kinetic aqueous solubility screen (light scattering); conditions: 1% DMSO / 99% PBS
Description: Aqueous solubility screen. The kinetic aqueous solubility of the target compounds was
as §32
Compostela, Spain). Ten mM stock solutions of the tested compounds were serially diluted,
NEPHELOstar Plus reader (BMG LABTECH). The results were adjusted to a segmented
linear regression to obtain the maximum concentration in which the compounds were soluble.

[6] = target: PAS of Electrophorus electricus AChE (EeAChE) (Electrophorus electricus, UniProt O42275); conditions: read-out: KD of propidium for PAS; value assumed for the calculation; ref 11 (Supporting Information); cited from earlier work
Sequence of PAS of Electrophorus electricus AChE (EeAChE) (O42275 24-633): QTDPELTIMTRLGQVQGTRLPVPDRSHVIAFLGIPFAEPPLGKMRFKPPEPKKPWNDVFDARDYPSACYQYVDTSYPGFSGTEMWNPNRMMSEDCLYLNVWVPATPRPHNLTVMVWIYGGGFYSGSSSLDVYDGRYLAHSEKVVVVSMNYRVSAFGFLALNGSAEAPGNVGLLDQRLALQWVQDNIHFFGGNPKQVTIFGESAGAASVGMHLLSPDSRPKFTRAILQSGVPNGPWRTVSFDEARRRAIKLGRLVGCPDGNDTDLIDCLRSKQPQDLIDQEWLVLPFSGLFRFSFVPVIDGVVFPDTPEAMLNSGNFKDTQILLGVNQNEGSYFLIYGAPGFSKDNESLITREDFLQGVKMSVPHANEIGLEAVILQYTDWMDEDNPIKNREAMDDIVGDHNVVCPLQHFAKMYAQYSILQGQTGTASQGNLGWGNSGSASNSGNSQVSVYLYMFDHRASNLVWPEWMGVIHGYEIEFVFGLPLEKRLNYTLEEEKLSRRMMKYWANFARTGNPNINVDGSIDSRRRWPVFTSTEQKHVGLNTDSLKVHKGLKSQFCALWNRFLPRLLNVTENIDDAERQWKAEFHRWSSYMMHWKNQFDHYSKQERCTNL

[7] = human serum BChE, mean ± SEM, n.a. = not active, % inhibition <10% at 100 μM
[8] = 37 °C, read-out: t1/2, human microsomes
[9] = 37 °C, read-out: t1/2, rat microsomes

SMILES: O=C(Nc1ccc(OC(F)(F)F)cc1)NC1CCN(C(=O)CCNc2c3c(nc4cc(Cl)ccc24)CCCC3)CC1 [12a, 1-{1-{3-[(6-Chloro-1,2,3,4-tetrahydroacridin-9-yl)amino]propanoyl}piperidin-4-yl}-3-[4-(trifluoromethoxy)phenyl]urea]
- higher hsEH potency relative to TPPU (recombinant human sEH): 9 fold
- IC50 (recombinant human sEH): 0.4 nM
- IC50 (recombinant human AChE): 14.5 ± 0.3 nM
- IC50 (recombinant mouse AChE): 35.4 ± 2 nM
- IC50 (human serum BChE; [7]): 947 ± 6 nM
- toxicity to SH-SY5Y cells LD50 (SH-SY5Y cells): 92.8 ± 52.3 µM
- LD50 (SH-SY5Y) (SH-SY5Y cells): 92.8 ± 52.3 ?M
- microsomal CLint at 1 h ([1]; 37 °C): 57 µL/min/mg
- half-life [1, 8]: 12 min
- remaining at 1 h [1]: 4%
- microsomal CLint at 1 h, 0.05 µM [2]: 109 µL/min/mg
- half-life at 1 h, 0.05 µM [2]: 6 min
- remaining at 1 h, 0.05 µM [2]: 1%
- microsomal CLint at 1 h, 0.05 µM ([3]; 37 °C): 56 µL/min/mg
- half-life at 0.05 µM [3, 9]: 12 min
- remaining at 1 h, 0.05 µM [3]: 4%
- IC50 (recombinant mouse sEH): 12.1 nM
- BBB permeation class [4]: CNS+ (High permeation, CNS+: Pe > 5.2)
- Papp [4]: 9.2 ± 0.2 ×10⁻⁶ cm/s
- solubility at 2 h [5]: 42.6 µM (≈ 25.1 µg/mL)

SMILES: O=C(Nc1ccc(OC(F)(F)F)cc1)NC1CCN(C(=O)CCCNc2c3c(nc4cc(Cl)ccc24)CCCC3)CC1 [12b, 1-{1-{4-[(6-Chloro-1,2,3,4-tetrahydroacridin-9-yl)amino]butanoyl}piperidin-4-yl}-3-[4-(trifluoromethoxy)phenyl]urea]
- IC50 (recombinant human sEH): 1 nM
- hAChE potency relative to 6-chlorotacrine (recombinant human AChE): 5 fold
- IC50 (recombinant human AChE): 2.71 ± 0.06 nM
- IC50 (recombinant mouse AChE): 4.01 ± 0.24 nM
- IC50 (human serum BChE; [7]): 416 ± 35 nM
- toxicity to SH-SY5Y cells LD50 (SH-SY5Y cells): >100 µM
- LD50 (SH-SY5Y) (SH-SY5Y cells): > 100 ?M
- microsomal CLint at 1 h ([1]; 37 °C): 19 µL/min/mg
- half-life at 1 h [1, 8]: 36 min
- remaining at 1 h [1]: 34%
- microsomal CLint at 1 h, 0.05 µM [2]: 78 µL/min/mg
- half-life at 1 h, 0.05 µM [2]: 9 min
- remaining at 1 h, 0.05 µM [2]: 1%
- microsomal CLint at 1 h, 0.05 µM ([3]; 37 °C): 69 µL/min/mg
- half-life at 1 h, 0.05 µM [3, 9]: 10 min
- remaining at 1 h, 0.05 µM [3]: 2%
- IC50 (recombinant mouse sEH): 15 nM
- BBB permeation class [4]: CNS+ (High permeation, CNS+: Pe > 5.2)
- Papp [4]: 9.1 ± 0.1 ×10⁻⁶ cm/s
- solubility at 2 h [5]: 13.7 µM (≈ 8.28 µg/mL)

SMILES: CC1=C[C@H]2Cc3nc4cc(Cl)ccc4c(N)c3[C@@H](C1)C2 [(+)-3, (+)-huprine Y, reference compound]
- IC50 (recombinant human sEH): > 50000 nM
- IC50 (recombinant mouse AChE): 474 ± 22 nM
- IC50 (human serum BChE): 170 ± 17 nM
- IC50 (recombinant mouse sEH): > 50000 nM

SMILES: CC1=C[C@H]2Cc3nc4cc(Cl)ccc4c(NCCCCC(=O)N4CCC(NC(=O)Nc5ccc(OC(F)(F)F)cc5)CC4)c3[C@@H](C1)C2 [(+)-15, (+)-(7R,11R)-1-{1-{5-[(3-Chloro-6,7,10,11-tetrahydro-9-methyl-7,11-methanocycloocta[b]quinolin-12-yl)amino]pentanoyl}piperidin-4-yl}-3-[4-(trifluoromethoxy)phenyl]urea]
- IC50 (recombinant human sEH): 3.1 nM
- IC50 (recombinant human AChE): 1660 ± 450 nM
- IC50 (recombinant mouse AChE): 102 ± 18 nM
- IC50 (human serum BChE; [7]): 179 ± 26 nM
- IC50 (recombinant mouse sEH): 14.5 nM

SMILES: CC1=C[C@@H]2Cc3nc4cc(Cl)ccc4c(N)c3[C@H](C1)C2 [(−)-3, (−)-huprine Y, reference compound]
- IC50 (recombinant human sEH): 41000 nM
- IC50 (recombinant mouse AChE): 0.62 ± 0.03 nM
- IC50 (human serum BChE): 222 ± 17 nM
- IC50 (recombinant mouse sEH): > 50000 nM

SMILES: CC1=C[C@@H]2Cc3nc4cc(Cl)ccc4c(NCCCCC(=O)N4CCC(NC(=O)Nc5ccc(OC(F)(F)F)cc5)CC4)c3[C@H](C1)C2 [(−)-15, (−)-(7S,11S)-1-{1-{5-[(3-Chloro-6,7,10,11-tetrahydro-9-methyl-7,11-methanocycloocta[b]quinolin-12-yl)amino]pentanoyl}piperidin-4-yl}-3-[4-(trifluoromethoxy)phenyl]urea]
- hsEH potency relative to its enantiomer (recombinant human sEH; enantioselectivity): 8 fold
- higher hsEH potency relative to TPPU (recombinant human sEH): 9 fold
- IC50 (recombinant human sEH): 0.4 nM
- hAChE potency relative to its enantiomer (recombinant human AChE; enantioselectivity): 850 fold
- IC50 (recombinant human AChE): 1.94 ± 0.67 nM
- IC50 (recombinant mouse AChE): 2.61 ± 0.16 nM
- IC50 (human serum BChE; [7]): 615 ± 34 nM
- toxicity to SH-SY5Y cells LD50 (SH-SY5Y cells): >100 µM
- LD50 (SH-SY5Y) (SH-SY5Y cells): > 100 ?M
- microsomal CLint at 1 h ([1]; 37 °C): 144 µL/min/mg
- half-life at 1 h [1, 8]: 5 min
- remaining at 1 h [1]: 1%
- microsomal CLint at 1 h, 0.05 µM [2]: 172 µL/min/mg
- half-life at 1 h, 0.05 µM [2]: 4 min
- remaining at 1 h, 0.05 µM [2]: 0.4%
- microsomal CLint at 1 h, 0.05 µM ([3]; 37 °C): 54 µL/min/mg
- half-life at 1 h, 0.05 µM [3, 9]: 13 min
- remaining at 1 h, 0.05 µM [3]: 4%
- IC50 (recombinant mouse sEH): 34.3 nM
- BBB permeation class [4]: CNS+ (High permeation, CNS+: Pe > 5.2)
- Papp [4]: 9.9 ± 0.3 ×10⁻⁶ cm/s
- solubility at 2 h [5]: 5.6 µM (≈ 3.75 µg/mL)

SMILES: CN1C(C(=O)Nc2ccccn2)=C(O)c2ccccc2S1(=O)=O [Piroxicam, reference compound]
- Papp [4]: 2.3 ± 0.1 ×10⁻⁶ cm/s

SMILES: Nc1c2c(nc3cc(Cl)ccc13)CCCC2 [compound 2, 6-chlorotacrine, reference compound]
- IC50 (recombinant human sEH): 49100 nM
- IC50 (recombinant mouse AChE): 19.8 ± 0.7 nM
- IC50 (recombinant mouse sEH): > 50000 nM

SMILES: CC[N+](C)(CC)CCC[n+]1c(-c2ccccc2)c2cc(N)ccc2c2ccc(N)cc21 [propidium, propidium iodide]
- Kd [6]: 700 nM
